37 molecules from patent US10034886B2, “GLP-1 receptor modulators” (Celgene International II SÀRL, priority 2014, dated 2018) can be followed below.

Structures are written as SMILES. A value given as a limit tells only on which side of the number the result lay.

A word on the EC50: it is the midpoint of the concentration-response curve.

The target in the assay is T1, GLP-1R (Homo sapiens, UniProt P43220).
T1 construct: host or cells: GLP-1R CRE-bla CHO-K1 cells
T1 sequence (P43220 24-463): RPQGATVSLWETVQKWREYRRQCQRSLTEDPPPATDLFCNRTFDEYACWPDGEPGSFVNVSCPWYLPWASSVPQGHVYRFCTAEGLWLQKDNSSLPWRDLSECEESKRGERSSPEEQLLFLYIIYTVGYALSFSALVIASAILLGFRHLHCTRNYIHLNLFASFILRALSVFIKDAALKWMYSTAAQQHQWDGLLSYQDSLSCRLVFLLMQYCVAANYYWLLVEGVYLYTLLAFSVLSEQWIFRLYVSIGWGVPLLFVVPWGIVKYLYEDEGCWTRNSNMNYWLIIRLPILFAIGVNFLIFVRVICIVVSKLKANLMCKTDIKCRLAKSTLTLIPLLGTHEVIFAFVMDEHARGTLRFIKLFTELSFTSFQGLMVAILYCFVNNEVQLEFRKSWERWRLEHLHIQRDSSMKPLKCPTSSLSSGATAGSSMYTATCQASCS
T1 sequence (P01275 100-127 partner limits assumed): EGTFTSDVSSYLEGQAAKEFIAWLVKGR
As to the kind of experiment: EC20 GLP-1(9-36) PAM cAMP assay: dose response of compound in the presence of fixed concentration of GLP-1(9-36). The conditions noted are these: dose response of compound in presence of fixed concentration of GLP-1(9-36), GLP-1R CRE-bla CHO-K1 cells, read-out: EC20 GLP-1(9-36) PAM EC50. Type of assay: cell-based. The method in brief: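 Positive allosteric modulation read as cAMP accumulation: compound titrations (12 points) combined with an EC20 level of GLP-1(9-36) on CHO-K1 GLP-1R CRE-bla cells, IBMX present, 30 min, 37 °C, pH 7.4 buffer. Luminescence converted to cAMP via standards; non-linear fit gave EC50 and Emax.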
A general note: cAMP levels reflect the balance of adenylyl cyclase and phosphodiesterase activity.
As to `CC(C)(C)c1ccc(C(=O)N[C@@H](Cc2ccc(-c3ncc(-c4nc(CCc5ccccc5)no4)cn3)cc2)C(=O)NCCC(=O)O)cc1` [Compound 746], the EC50 lay in the range of 2.5 to 5 µM.

Turning to `CC(C)(C)c1ccc(C(=O)N[C@@H](Cc2ccc(-c3ncc(-c4nc(CC5CCCCC5)no4)cn3)cc2)C(=O)NCCC(=O)O)cc1` [Compound 747], the EC50 lay in the range of 2.5 to 5 µM.

For the molecule `Cc1ccc(-c2cccc(-c3noc(-c4cnc(-c5ccc(C[C@H](NC(=O)c6ccc(C(C)(C)C)cc6)C(=O)NCCC(=O)O)cc5)nc4)n3)c2)cc1` [Compound 748], the EC50 fell in the range of 2.5 to 5 µM.

For `CC(C)CCc1noc(-c2cnc(-c3ccc(C[C@H](NC(=O)c4ccc(C(C)(C)C)cc4)C(=O)NCCC(=O)O)cc3)nc2)n1` [Compound 749], the EC50 lay in the range of 0.8 to 2.5 µM.

`Cc1cccc(-c2noc(-c3cnc(-c4ccc(C[C@H](NC(=O)c5ccc(C(C)(C)C)cc5)C(=O)NCCC(=O)O)cc4)nc3)n2)c1` [Compound 750]: the EC50 lay within 2.5 to 5 µM.

With `CC(C)(C)c1ccc(C(=O)N[C@@H](Cc2ccc(-c3ncc(-c4nc(-c5ccc(Cl)cc5)no4)cn3)cc2)C(=O)NCCC(=O)O)cc1` [Compound 751], the EC50 fell in the range of 2.5 to 5 µM.

Take `CC(C)(C)c1ccc(C(=O)N[C@@H](Cc2ccc(-c3ncc(-c4nc(-c5ccc(Cl)c(Cl)c5)no4)cn3)cc2)C(=O)NCCC(=O)O)cc1` [Compound 752]: the half-maximal effective concentration (EC50) was 5 to 10 µM.

For the molecule `CCCCCc1noc(-c2cnc(-c3ccc(C[C@H](NC(=O)c4ccc(C(C)(C)C)cc4)C(=O)NCCC(=O)O)cc3)nc2)n1` [Compound 753], the EC50 was in the range of 2.5 to 5 µM.

Take `CCCCCCCc1noc(-c2cnc(-c3ccc(C[C@H](NC(=O)c4ccc(C(C)(C)C)cc4)C(=O)NCCC(=O)O)cc3)nc2)n1` [Compound 754]: the EC50 was 5 to 10 µM.

On to `CCCCCCCCc1noc(-c2cnc(-c3ccc(C[C@H](NC(=O)c4ccc(C(C)(C)C)cc4)C(=O)NCCC(=O)O)cc3)nc2)n1` [Compound 755], for which the EC50 is 2.5 to 5 µM.

For the molecule `CCCCCCc1noc(-c2ccc(-c3cnc(-c4ccc(C[C@H](NC(=O)c5ccc(C(C)(C)C)cc5)C(=O)NCCC(=O)O)cc4)nc3)cc2)n1` [Compound 756], the EC50 lay in the range of 5 to 10 µM.

Take `CC(C)(C)c1ccc(C(=O)N[C@@H](Cc2ccc(-c3ncc(-c4nc(-c5cccc(Oc6ccccc6)c5)no4)cn3)cc2)C(=O)NCCC(=O)O)cc1` [Compound 757]: the EC50 was in the range of 0.8 to 2.5 µM.

On to `CC(C)(C)c1ccc(C(=O)N[C@@H](Cc2ccc(-c3ncc(-c4nc(-c5cccc(Cl)c5)no4)cn3)cc2)C(=O)NCCC(=O)O)cc1` [Compound 758], for which the EC50 was in the range of 2.5 to 5 µM.

Turning to `CCCCOc1cccc(-c2noc(-c3cnc(-c4ccc(C[C@H](NC(=O)c5ccc(C(C)(C)C)cc5)C(=O)NCCC(=O)O)cc4)nc3)n2)c1` [Compound 759], the EC50 was in the range of 0.8 to 2.5 µM.

For the molecule `CCCCCCOc1cccc(-c2noc(-c3cnc(-c4ccc(C[C@H](NC(=O)c5ccc(C(C)(C)C)cc5)C(=O)NCCC(=O)O)cc4)nc3)n2)c1` [Compound 760], the EC50 was in the range of 0.8 to 2.5 µM.

Consider `CCCOc1ccc(-c2cnc(-c3ccc(C[C@H](NC(=O)c4ccc(C(C)(C)C)s4)C(=O)N4CC[C@H](C(=O)O)C4)cc3)nc2)cc1` [Compound 761], for which the EC50 is 2.5 to 5 µM.

With `CCCCCOc1ccc(-c2cnc(-c3ccc(C[C@H](NC(=O)c4ccc(C(C)(C)C)s4)C(=O)N4CC[C@H](C(=O)O)C4)cc3)nc2)cc1` [Compound 762], the EC50 lay within 5 to 10 µM.

As to `CCCCCCOc1ccc(-c2cnc(-c3ccc(C[C@H](NC(=O)c4ccc(C(C)(C)C)s4)C(=O)N4CC[C@H](C(=O)O)C4)cc3)nc2)cc1` [Compound 763], the EC50 is 0.8 to 2.5 µM.

For the molecule `CCCCCCCCOc1ccc(-c2cnc(-c3ccc(C[C@H](NC(=O)c4ccc(C(C)(C)C)s4)C(=O)N4CC[C@H](C(=O)O)C4)cc3)nc2)cc1` [Compound 764], the EC50 was below 0.8 µM.

In the case of `CCCCCCCc1ccc(-c2cnc(-c3ccc(C[C@H](NC(=O)c4ccc(C(C)(C)C)s4)C(=O)N4CC[C@H](C(=O)O)C4)cc3)nc2)cc1` [Compound 765], the EC50 is 0.8 to 2.5 µM.

For the molecule `CCCCCC(=O)c1ccc(-c2cnc(-c3ccc(C[C@H](NC(=O)c4ccc(C(C)(C)C)s4)C(=O)N4CC[C@H](C(=O)O)C4)cc3)nc2)cc1` [Compound 766], the EC50 is 2.5 to 5 µM.

For the molecule `CC(C)(C)COc1ccc(-c2cnc(-c3ccc(C[C@H](NC(=O)c4ccc(C(C)(C)C)s4)C(=O)N4CC[C@H](C(=O)O)C4)cc3)nc2)cc1` [Compound 767], the EC50 was 2.5 to 5 µM.

On to `CC(C)(C)c1ccc(-c2cnc(-c3ccc(C[C@H](NC(=O)c4ccc(C(C)(C)C)s4)C(=O)N4CC[C@H](C(=O)O)C4)cc3)nc2)cc1` [Compound 768], for which the EC50 lay within 0.8 to 2.5 µM.

On to `CC(C)(C)c1ccc(C(=O)N[C@@H](Cc2ccc(-c3ncc(-c4ccc(-c5ccccc5)cc4)cn3)cc2)C(=O)N2CC[C@H](C(=O)O)C2)s1` [Compound 769], for which the EC50 was 5 to 10 µM.

In the case of `CC(C)CCCCOc1ccc(-c2cnc(-c3ccc(C[C@H](NC(=O)c4ccc(C(C)(C)C)s4)C(=O)N[C@H](C)C(=O)O)cc3)nc2)cc1` [Compound 770], the EC50 was below 0.8 µM.

As for `CC(C)CCCOc1ccc(-c2cnc(-c3ccc(C[C@H](NC(=O)c4ccc(C(C)(C)C)s4)C(=O)N[C@H](C)C(=O)O)cc3)nc2)cc1` [Compound 771], the EC50 is 0.8 to 2.5 µM.

For `CC(C)CCCCOc1ccc(-c2cnc(-c3ccc(C[C@H](NC(=O)c4ccc(C(C)(C)C)s4)C(=O)N4CC[C@H](C(=O)O)C4)cc3)nc2)cc1` [Compound 772], the EC50 was below 0.8 µM.

With `CC(C)CCCOc1ccc(-c2cnc(-c3ccc(C[C@H](NC(=O)c4ccc(C(C)(C)C)s4)C(=O)N4CC[C@H](C(=O)O)C4)cc3)nc2)cc1` [Compound 773], the EC50 is 0.8 to 2.5 µM.

For the molecule `CC(C)(C)c1ccc(C(=O)N[C@@H](Cc2ccc(-c3ncc(-c4ccc(OCCC5CCCCC5)cc4)cn3)cc2)C(=O)N2CC[C@H](C(=O)O)C2)s1` [Compound 774], the EC50 lay within 0.8 to 2.5 µM.

For `CC(C)(C)COc1ccc(-c2cnc(-c3ccc(C[C@H](NC(=O)c4ccc(C(C)(C)C)s4)C(=O)N4CC(C(=O)O)C4)cc3)nc2)cc1` [Compound 775], the EC50 is below 0.8 µM.

In the case of `CCCCCCCOc1ccc(-c2cnc(-c3ccc(C[C@H](NC(=O)c4ccc(C(C)(C)C)s4)C(=O)N4CC(C(=O)O)C4)cc3)nc2)cc1C` [Compound 776], the EC50 is below 0.8 µM.

For the molecule `CCCCCCOc1ccc(-c2cnc(-c3ccc(C[C@H](NC(=O)c4ccc(C(C)(C)C)s4)C(=O)N4CC(C(=O)O)C4)cc3)nc2)cc1` [Compound 777], the EC50 fell in the range of 0.8 to 2.5 µM.

With `CCCCCCCCOc1ccc(-c2cnc(-c3ccc(C[C@H](NC(=O)c4ccc(C(C)(C)C)s4)C(=O)N4CC(C(=O)O)C4)cc3)nc2)cc1` [Compound 778], the EC50 was below 0.8 µM.

Turning to `CC(C)(C)c1ccc(C(=O)N[C@@H](Cc2ccc(-c3ncc(-c4ccc(OC5CCCC5)cc4)cn3)cc2)C(=O)N2CC(C(=O)O)C2)s1` [Compound 779], the EC50 lay in the range of 0.8 to 2.5 µM.

Consider `CC(C)(C)c1ccc(C(=O)N[C@@H](Cc2ccc(-c3ncc(-c4ccc(OC5CC5)cc4)cn3)cc2)C(=O)N2CC(C(=O)O)C2)s1` [Compound 780], for which the EC50 is 2.5 to 5 µM.

Turning to `CC(C)(C)c1ccc(C(=O)N[C@@H](Cc2ccc(-c3ncc(-c4ccc(OCC5CC5)cc4)cn3)cc2)C(=O)N2CC(C(=O)O)C2)s1` [Compound 781], the EC50 fell in the range of 2.5 to 5 µM.

As to `CC(C)Oc1ccc(-c2cnc(-c3ccc(C[C@H](NC(=O)c4ccc(C(C)(C)C)s4)C(=O)N4CC(C(=O)O)C4)cc3)nc2)cc1` [Compound 782], the EC50 was in the range of 0.8 to 2.5 µM.
